Source: ChEMBL document CHEMBL3885881, “DrugMatrix”

Organism: Rattus norvegicus
Assay: DrugMatrix - Regimen: Daily Repeat
Assay type: toxicity, organism-based, Sprague-Dawley
Set-up: regimen Daily Repeat, gender Male, age 6-8 weeks
Conditions: in vivo, po, route oral GAVAGE, vehicle 100 % WATER; for ABSOLUTE BASOPHIL / ABSOLUTE EOSINOPHIL / ABSOLUTE LYMPHOCYTE / ABSOLUTE MONOCYTE / ABSOLUTE SEGMENTED NEUTROPHIL / BASOPHIL / EOSINOPHIL / ERYTHROCYTE COUNT / HEMATOCRIT / HEMOGLOBIN / LEUKOCYTE COUNT / LYMPHOCYTE / MEAN CORPUSCULAR HEMOGLOBIN / MEAN CORPUSCULAR HEMOGLOBIN CONCENTRATION / MEAN CORPUSCULAR VOLUME / MONOCYTE / NEUTROPHIL / NUCLEATED RED BLOOD CELLS / PLATELET COUNT: tissue Blood; for ALANINE AMINOTRANSFERASE / ALBUMIN / ALKALINE PHOSPHATASE / ASPARTATE AMINOTRANSFERASE / BLOOD UREA NITROGEN / CARBON DIOXIDE / CHLORIDE / CHOLESTEROL / CREATINE PHOSPHOKINASE / CREATININE / GLUCOSE / LACTATE DEHYDROGENASE / LIPASE / PHOSPHORUS / POTASSIUM / SODIUM / TOTAL BILIRUBIN / TOTAL PROTEIN / URIC ACID: tissue Plasma
[1] = 0 mg/kg, 72 h, dose level Control, time 3 day
[2] = 0 mg/kg, 120 h, dose level Control, time 5 day
[3] = 25 mg/kg, 72 h, dose level High, time 3 day

## O=P1(N(CCCl)CCCl)NCCCO1 (centres undefined) [CYCLOPHOSPHAMIDE ANHYDROUS]
[1]
  ABSOLUTE BASOPHIL: 0 CELLS/uL
  ABSOLUTE EOSINOPHIL: 32.5 CELLS/uL
  ABSOLUTE LYMPHOCYTE: 9305.83 CELLS/uL
  ABSOLUTE MONOCYTE: 43.83 CELLS/uL
  ABSOLUTE SEGMENTED NEUTROPHIL: 817.83 CELLS/uL
  BASOPHIL: 0%
  EOSINOPHIL: 0.33%
  ERYTHROCYTE COUNT: 5.38 x10E6/uL
  HEMATOCRIT: 33.63%
  HEMOGLOBIN: 13.17 G/DL
  LEUKOCYTE COUNT: 10.2 x10E3/uL
  LYMPHOCYTE: 91.17%
  MEAN CORPUSCULAR HEMOGLOBIN: 24.5 pg
  MEAN CORPUSCULAR HEMOGLOBIN CONCENTRATION: 39.13 G/DL
  MEAN CORPUSCULAR VOLUME: 62.53 fL
  MONOCYTE: 0.5%
  NEUTROPHIL: 8%
  NUCLEATED RED BLOOD CELLS: 0.17 /100WBC
  PLATELET COUNT: 858 x10E3/uL
  ALANINE AMINOTRANSFERASE: 55.67 u/L
  ALBUMIN: 4.07 G/DL
  ALKALINE PHOSPHATASE: 337 u/L
  ASPARTATE AMINOTRANSFERASE: 84 u/L
  BLOOD UREA NITROGEN: 13.17 mg/dL
  CARBON DIOXIDE: 34.17 mmol/L
  CHLORIDE: 99.33 MEQ/L
  CHOLESTEROL: 78.83 mg/dL
  CREATINE PHOSPHOKINASE: 576.83 u/L
  CREATININE: 0.17 mg/dL
  GLUCOSE: 152.67 mg/dL
  LACTATE DEHYDROGENASE: 147.83 u/L
  LIPASE: 9.5 u/L
  PHOSPHORUS: 10.78 mg/dL
  POTASSIUM: 6.34 MEQ/L
  SODIUM: 144.12 MEQ/L
  TOTAL BILIRUBIN: 0.18 mg/dL
  TOTAL PROTEIN: 6.08 G/DL
  URIC ACID: 0.65 mg/dL
[2]
  ABSOLUTE BASOPHIL: 0 CELLS/uL
  ABSOLUTE EOSINOPHIL: 31.17 CELLS/uL
  ABSOLUTE LYMPHOCYTE: 7918.33 CELLS/uL
  ABSOLUTE MONOCYTE: 58.33 CELLS/uL
  ABSOLUTE SEGMENTED NEUTROPHIL: 725.5 CELLS/uL
  BASOPHIL: 0%
  EOSINOPHIL: 0.33%
  ERYTHROCYTE COUNT: 5.32 x10E6/uL
  HEMATOCRIT: 33.53%
  HEMOGLOBIN: 13.17 G/DL
  LEUKOCYTE COUNT: 8.73 x10E3/uL
  LYMPHOCYTE: 90.33%
  MEAN CORPUSCULAR HEMOGLOBIN: 24.82 pg
  MEAN CORPUSCULAR HEMOGLOBIN CONCENTRATION: 39.33 G/DL
  MEAN CORPUSCULAR VOLUME: 63.12 fL
  MONOCYTE: 0.67%
  NEUTROPHIL: 8.67%
  NUCLEATED RED BLOOD CELLS: 0 /100WBC
  PLATELET COUNT: 1144.83 x10E3/uL
  ALANINE AMINOTRANSFERASE: 60.5 u/L
  ALBUMIN: 3.97 G/DL
  ALKALINE PHOSPHATASE: 343.17 u/L
  ASPARTATE AMINOTRANSFERASE: 80.83 u/L
  BLOOD UREA NITROGEN: 15 mg/dL
  CARBON DIOXIDE: 31 mmol/L
  CHLORIDE: 99.75 MEQ/L
  CHOLESTEROL: 71.5 mg/dL
  CREATINE PHOSPHOKINASE: 237.17 u/L
  CREATININE: 0.17 mg/dL
  GLUCOSE: 137 mg/dL
  LACTATE DEHYDROGENASE: 146.17 u/L
  LIPASE: 11.5 u/L
  PHOSPHORUS: 10.13 mg/dL
  POTASSIUM: 6 MEQ/L
  SODIUM: 145 MEQ/L
  TOTAL BILIRUBIN: 0.13 mg/dL
  TOTAL PROTEIN: 5.82 G/DL
  URIC ACID: 0.62 mg/dL
[3]
  ABSOLUTE BASOPHIL: 0 CELLS/uL
  ABSOLUTE EOSINOPHIL: 0 CELLS/uL
  ABSOLUTE LYMPHOCYTE: 2636 CELLS/uL
  ABSOLUTE MONOCYTE: 11 CELLS/uL
  ABSOLUTE SEGMENTED NEUTROPHIL: 486.33 CELLS/uL
  BASOPHIL: 0%
  EOSINOPHIL: 0%
  ERYTHROCYTE COUNT: 5 x10E6/uL
  HEMATOCRIT: 30.93%
  HEMOGLOBIN: 12.33 G/DL
  LEUKOCYTE COUNT: 3.13 x10E3/uL
  LYMPHOCYTE: 83.67%
  MEAN CORPUSCULAR HEMOGLOBIN: 24.73 pg
  MEAN CORPUSCULAR HEMOGLOBIN CONCENTRATION: 39.87 G/DL
  MEAN CORPUSCULAR VOLUME: 61.97 fL
  MONOCYTE: 0.33%
  NEUTROPHIL: 16%
  NUCLEATED RED BLOOD CELLS: 0 /100WBC
  PLATELET COUNT: 636 x10E3/uL
  ALANINE AMINOTRANSFERASE: 49.33 u/L
  ALBUMIN: 4.03 G/DL
  ALKALINE PHOSPHATASE: 291 u/L
  ASPARTATE AMINOTRANSFERASE: 68 u/L
  BLOOD UREA NITROGEN: 15.67 mg/dL
  CARBON DIOXIDE: 34 mmol/L
  CHLORIDE: 99.5 MEQ/L
  CHOLESTEROL: 84.67 mg/dL
  CREATINE PHOSPHOKINASE: 160 u/L
  CREATININE: 0.13 mg/dL
  GLUCOSE: 147 mg/dL
  LACTATE DEHYDROGENASE: 134 u/L
  LIPASE: 9.67 u/L
  PHOSPHORUS: 10.63 mg/dL
  POTASSIUM: 5.82 MEQ/L
  SODIUM: 144.75 MEQ/L
  TOTAL BILIRUBIN: 0.17 mg/dL
  TOTAL PROTEIN: 5.77 G/DL
  URIC ACID: 0.33 mg/dL
